Test results published in PMC6270839, “Synthesis and Biological Evaluation of Novel 10-Substituted-7-ethyl-10-hydroxycamptothecin (SN-38) Prodrugs” (Molecules, 2014).
Read-outs that look alike come from different tables or passages of the source.

Assays:
[1] = Chemical stability of the prodrugs in PBS (HPLC); type: physicochemical; settings: for Remaining Prodrugs 1 h pH 4.6 / Remaining Prodrugs 12 h pH 4.6: PBS pH 4.6, 37 °C; for Remaining Prodrugs 1 h pH 7.4 / Remaining Prodrugs 12 h pH 7.4: PBS pH 7.4, 37 °C
Description: They were stable at pH 4.6 at 37 °C for 12 h. Except for compound 5h, less than 35% of the prodrugs remained after incubation for 12 h in pH 7.4 buffer. […] For example, less than 30% of the prodrugs 7a–f remained, while more than 85% of the prodrugs 5a–h remained after incubation for 1 h in pH 7.4 buffer.
The stability of all compounds was investigated in PBS and human plasma by HPLC using a C18 analytical column. The mobile phase was composed of water and acetonitrile at a ratio of 70:30, respectively, containing 1% trifluoroacetic acid. The amount of the compound and its metabolite SN-38 were flowed at the rate of 0.8 mL·min^−1 and detected by the UV wavelength of 370 nm. Stability test in PBS: each compound was dissolved in PBS (pH 7.4 and pH 4.6), incubated at 37 °C and analyzed at 1, 3, 6, 12 h. Stability test in plasma: The test compounds were dissolved in DMSO and diluted to 1 mM by 0.9% physiological saline. Forty μL of each solution was added into plasma with a final concentration of 0.1 mM. The mixture was incubated in a 37 °C water bath following the vigorous vortex mixing for 15 s. Samples were analyzed at 1, 3, 6, 12 h. 400 μL of cold acetonitrile (containing 1% trifluoroacetic acid) was added to each sample, vortex-mixed for 15 s and centrifuged at 3500 rpm for 15 min at 4 °C.

[2] = tested on: HeLa human cervical carcinoma cell line; assay: MTT in vitro antitumor (antiproliferative) assay, HeLa; type: cell-based; settings: 72 h
Description: (§1) The in vitro antitumor activities were evaluated on human cancer cell lines SGC-7901 and HeLa by the MTT assay, using irinotecan as the reference compound.
(§2) The in vitro antitumor activity was evaluated on two human cancer cell lines with the MTT method. SGC-7901 is a human gastric adenocarcinoma cancer cell line and HeLa is a human cervical carcinoma cell line. Cells were provided by the Jilin Province Tumor Institute. Cells were maintained in IMDM medium supplemented with 10% fetal calf serum, 2 mM glutamine, 100 U/mL penicillin, and 100 μg/mL streptomycin, at 37 °C in a humidified atmosphere containing 5% CO2. The human cancer lines SGC-7901 and HELA at a concentration of […] were incubated in a 96-well microtiter plate (100 μL in every well) for 24 h (37 °C, 5%CO2). Then the cells were incubated continuously for 72 h following various concentrations of test drugs were added. The concentrations are 50 μM, 10 μM, 2 μM, 0.4 μM, 0.08 μM, 0.016 μM, 0.0032 μM, respectively. After the 100 μL 0.05% MTT solution was added to each well, the plate was incubated for a further 4 h before removal of medium, the media removed. Formazan crystals were dissolved with 100 μL DMSO, then the absorbance was detected at 490 nm.

[3] = tested on: SGC-7901 human gastric adenocarcinoma cancer cell line; assay: MTT in vitro antitumor (antiproliferative) assay, SGC-7901; type: cell-based; settings: for IC50: Homo sapiens, SGC-7901, 72 h, read-out: IC50 SGC-7901; for fold greater antiproliferative activity (lower IC50) than irinotecan, SGC-7901 cells: IC50 ratio vs irinotecan
Description: as §1, §2

AChE from electric eel = AChE from electric eel (Electrophorus electricus, UniProt O42275); assay: AChE inhibition assay (modified Ellman method); type: biochemical; settings: AChE IC50, electric eel AChE, phosphate buffer pH 7.3, 37 °C
AChE from electric eel, sequence (O42275 24-633): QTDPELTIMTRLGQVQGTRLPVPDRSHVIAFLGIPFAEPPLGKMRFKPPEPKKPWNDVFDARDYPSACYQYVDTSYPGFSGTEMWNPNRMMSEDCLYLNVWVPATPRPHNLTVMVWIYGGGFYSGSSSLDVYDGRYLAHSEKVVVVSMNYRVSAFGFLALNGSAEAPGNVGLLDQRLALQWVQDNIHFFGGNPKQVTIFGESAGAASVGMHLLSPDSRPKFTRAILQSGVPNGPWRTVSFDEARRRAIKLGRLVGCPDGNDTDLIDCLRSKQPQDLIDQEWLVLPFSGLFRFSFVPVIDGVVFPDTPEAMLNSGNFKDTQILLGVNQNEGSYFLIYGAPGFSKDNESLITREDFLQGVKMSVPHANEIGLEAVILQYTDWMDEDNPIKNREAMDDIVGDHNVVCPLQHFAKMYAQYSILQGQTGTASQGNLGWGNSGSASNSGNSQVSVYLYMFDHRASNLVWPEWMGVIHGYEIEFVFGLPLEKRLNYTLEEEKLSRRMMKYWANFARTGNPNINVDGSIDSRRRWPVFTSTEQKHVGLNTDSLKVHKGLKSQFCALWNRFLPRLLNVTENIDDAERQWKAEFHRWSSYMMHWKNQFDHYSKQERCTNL
From the text: Irinotecan has been reported to be a potent inhibiter of AChE, and inhibition of this enzyme causes acute cholinergic diarrhea. Unlike irinotecan, the compounds we assayed were only weak inhibitors of AChE. […] One possible explanation is that the active site of AChE is present at the bottom of a gorge that is lined with hydrophobic amino acid residues. The terminal dipiperidino moiety in CPT-11 that interacts with amino acid residues within AChE plays a major role in enzyme inhibition, which has been confirmed by X-ray crystallographic studies.
The AChE inhibition by all compounds was studied according to a modification of the method of Ellman et al.. The activity was assayed with AChE from electric eel in the presence or absence of the test compounds in phosphate buffer (pH7.3). After the incubation at 37 °C for 1 min, 0.38 mM 5,5-dithiobisnitrobenzoic acid and 0.56 mM ATCh were added to the buffer. The changes in absorbance were read at 412 nm, per 15 s intervals for 3 min by a spectrophotometer (UV-2500, Shimadzu Corp., Kyoto, Japan).

[4] = tested on: human colon adenocarcinoma SW1116 xenografts; assay: Tumor growth inhibition in human colon adenocarcinoma SW1116 xenografts in nude mice; type: in vivo; settings: 60 mg/kg, injection in the tumor section once per day for 6 days; for Tumor Weight: SW1116 xenograft nude mice, x ± SD
Description: The antitumor activity of 5e, compared with CPT-11 and SN-38, was investigated in human colon adenocarcinoma SW1116 xenografts in nude mice. The model animals were divided into four experimental groups, eight animals per group. Tested compouds were each administered by injection in the tumor section once per day for contiguous 6 days. The injection doses of test compound 5e, CPT-11, and SN-38 were 60 mg/kg, respectively. Using the vehicle group as the control, we tested the inhibitory activities of these compounds for 6 days and measured the changes in body weight and tumor size every 2 days. […] No toxic death occurred after drug treatment, and the body weight losses induced by 5e, CPT-11, and SN-38 at the given dose were similar.

| SMILES | Remaining Prodrugs 1 h pH 4.6 [1] | Remaining Prodrugs 12 h pH 4.6 [1] | Remaining Prodrugs 1 h pH 7.4 [1] | Remaining Prodrugs 12 h pH 7.4 [1] | IC50 ([2]; read-out: IC50 HeLa) | IC50 [3] | IC50 (AChE from electric eel) | Tumor Weight [4] | fold greater antiproliferative activity (lower IC50) than irinotecan, SGC-7901 cells [3] | IC50 ([2]; read-out: IC50 against HeLa cells) | Inhibitory Rate ([4]; day 6, vs vehicle) |
| --- | --- | --- | --- | --- | --- | --- | --- | --- | --- | --- | --- |
| CCc1c2c(nc3ccc(OC(=O)NCC(=O)O)cc13)-c1cc3c(c(=O)n1C2)COC(=O)[C@]3(O)CC [Compound 5a, 10-OCO-(Gly-OH)-SN-38] | 100% | 98.4% | 85.3% | 14.8% | 30.4 nM | 2690 ± 110 nM | 19800 nM |  |  |  |  |
| CCc1c2c(nc3ccc(OC(=O)NC(C)C(=O)O)cc13)-c1cc3c(c(=O)n1C2)COC(=O)[C@]3(O)CC (stereo partly shown) [Compound 5b, 10-OCO-(Ala-OH)-SN-38] |  |  |  |  | 9.85 nM | 1750 ± 600 nM |  |  |  |  |  |
| CCc1c2c(nc3ccc(OC(=O)NC(C(=O)O)C(C)C)cc13)-c1cc3c(c(=O)n1C2)COC(=O)[C@]3(O)CC (stereo partly shown) [Compound 5c, 10-OCO-(Val-OH)-SN-38] |  |  |  |  | 5.61 nM | 1880 ± 720 nM |  |  |  |  |  |
| CCc1c2c(nc3ccc(OC(=O)NC(CCC(=O)O)C(=O)O)cc13)-c1cc3c(c(=O)n1C2)COC(=O)[C@]3(O)CC (stereo partly shown) [Compound 5d, 10-OCO-(Glu-OH)-SN-38] | 98.1% | 92.5% | 85.2% | 8.6% |  |  |  |  |  |  |  |
| CCc1c2c(nc3ccc(OC(=O)NC(CC(C)C)C(=O)O)cc13)-c1cc3c(c(=O)n1C2)COC(=O)[C@]3(O)CC (stereo partly shown) [Compound 5e, 10-OCO-(Leu-OH)-SN-38] |  |  |  |  | 1.82 nM | 500 ± 190 nM |  | 0.17 ± 0.05 g/10g |  |  |  |
| CCc1c2c(nc3ccc(OC(=O)NC(C(=O)O)C(C)CC)cc13)-c1cc3c(c(=O)n1C2)COC(=O)[C@]3(O)CC (stereo partly shown) [Compound 5f, 10-OCO-(Ile-OH)-SN-38] |  |  |  |  | 3.64 nM | 760 ± 340 nM | 1360 nM |  |  |  |  |
| CCc1c2c(nc3ccc(OC(=O)N[C@H](CC(=O)O)C(=O)O)cc13)-c1cc3c(c(=O)n1C2)COC(=O)[C@]3(O)CC [Compound 5g, 10-OCO-(L-Asp-OH)-SN-38] | 100% | 94.5% | 93.9% | 34.1% | 9.07 nM | 980 ± 50 nM | 3080 nM |  |  |  |  |
| CCc1c2c(nc3ccc(OC(=O)N[C@@H](CC(=O)O)C(=O)O)cc13)-c1cc3c(c(=O)n1C2)COC(=O)[C@]3(O)CC [Compound 5h, 10-OCO-(D-Asp-OH)-SN-38] | 100% | 94.5% | 93.4% | 52.2% | < 3.2 nM | 240 nM | 7430 nM |  | 30 fold |  |  |
| CCc1c2c(nc3ccc(OC(=O)NCC(=O)N[C@H](CC(=O)O)C(=O)O)cc13)-c1cc3c(c(=O)n1C2)COC(=O)[C@]3(O)CC [Compound 7a, 10-OCO-(D-Asp-Gly-OH)-SN-38] | 100% | 96.8% | 26.0% | 0% | < 3.2 nM | 1040 ± 900 nM | 116000 nM |  |  |  |  |
| CCc1c2c(nc3ccc(OC(=O)NCC(=O)N[C@@H](CC(=O)O)C(=O)O)cc13)-c1cc3c(c(=O)n1C2)COC(=O)[C@]3(O)CC [Compound 7b, 10-OCO-(L-Asp-Gly-OH)-SN-38] | 100% | 96.9% | 17.6% | 0% | 14.8 nM | 610 ± 680 nM |  |  |  |  |  |
| CCc1c2c(nc3ccc(OC(=O)NCC(=O)NC(CCC(=O)O)C(=O)O)cc13)-c1cc3c(c(=O)n1C2)COC(=O)[C@]3(O)CC (stereo partly drawn) [Compound 7c, 10-OCO-(Glu-Gly-OH)-SN-38] | 100% | 96.4% | 29.4% | 0% | < 3.2 nM | 200 ± 70 nM | > 100000 nM |  | 30 fold |  |  |
| CCc1c2c(nc3ccc(OC(=O)NC(C)C(=O)N[C@H](CC(=O)O)C(=O)O)cc13)-c1cc3c(c(=O)n1C2)COC(=O)[C@]3(O)CC (stereo partly drawn) [Compound 7d, 10-OCO-(D-Asp-Ala-OH)-SN-38] | 100% | 95.5% | 26.3% | 0% | < 3.2 nM | 260 ± 640 nM | 4440 nM |  | 30 fold |  |  |
| CCc1c2c(nc3ccc(OC(=O)NC(C)C(=O)N[C@@H](CC(=O)O)C(=O)O)cc13)-c1cc3c(c(=O)n1C2)COC(=O)[C@]3(O)CC (stereo partly drawn) [Compound 7e, 10-OCO-(L-Asp-Ala-OH)-SN-38] | 100% | 94.5% | 23.4% | 0% | 12.9 nM | 210 ± 550 nM |  |  |  |  |  |
| CCc1c2c(nc3ccc(OC(=O)NC(C)C(=O)NC(CCC(=O)O)C(=O)O)cc13)-c1cc3c(c(=O)n1C2)COC(=O)[C@]3(O)CC (stereo partly drawn) [Compound 7f, 10-OCO-(Glu-Ala-OH)-SN-38] | 100% | 94.7% | 14.4% | 0% | 1.57 nM | 270 ± 180 nM | 36100 nM |  | 30 fold | < 3.2 nM |  |
| CCc1c2c(nc3ccc(O)cc13)-c1cc3c(c(=O)n1C2)COC(=O)[C@]3(O)CC [SN-38, 7-ethyl-10-hydroxycamptothecin] |  |  |  |  |  |  |  | 0.32 ± 0.12 g/10g |  |  | 8.6% |
